Like-named read-outs stand apart in the source and are kept apart here.
Experiments:
[1] = tested on: Puccinia triticina; Synonym: Puccinia recondite f. sp. tritici; test: Wheat brown rust (PUCCRT) disease control on wheat seedlings; assay type: in vivo; settings: Puccinia triticina, High volume application, 100 ppm
Experimental: Technical grades of materials were dissolved in acetone, which were then mixed with nine volumes of water containing 110 ppm Triton X-100. The fungicide solutions were applied onto wheat seedlings using an automated booth sprayer to run-off. All sprayed plants were allowed to air dry prior to further handling. All fungicides were evaluated using the aforementioned method for their activity vs. all target diseases. Wheat leaf blotch and brown rust activity were also evaluated using track spray applications, in which case the fungicides were formulated as EC formulations, containing 0.1% Trycol 5941 in the spray solutions. Wheat plants (variety Yuma) were grown from seed in a greenhouse in 50% mineral soil/50% soil-less Metro mix until the first leaf was fully emerged, with 7-10 seedlings per pot. These plants were inoculated with an aqueous spore suspension of Puccinia triticina either prior to or after fungicide treatments. After inoculation the plants were kept in a dark dew room at 22° C. with 100% relative humidity overnight to permit spores to germinate and infect the leaf. The plants were then transferred to a greenhouse set at 24° C. for disease to develop. Fungicide formulation, application and disease assessment followed the procedures as described in the Example A.

[2] = tested on: Mycosphaerella graminicola; Anamorph: Septoria tritici; test: Leaf blotch of wheat (SEPTTR) disease control on wheat seedlings; assay type: in vivo; settings: Zymoseptoria tritici, High volume application, 100 ppm
Experimental: Technical grades of materials were dissolved in acetone, which were then mixed with nine volumes of water containing 110 ppm Triton X-100. The fungicide solutions were applied onto wheat seedlings using an automated booth sprayer to run-off. All sprayed plants were allowed to air dry prior to further handling. All fungicides were evaluated using the aforementioned method for their activity vs. all target diseases. Wheat leaf blotch and brown rust activity were also evaluated using track spray applications, in which case the fungicides were formulated as EC formulations, containing 0.1% Trycol 5941 in the spray solutions. Wheat plants (variety Yuma) were grown from seed in a greenhouse in 50% mineral soil/50% soil-less Metro mix until the first leaf was fully emerged, with 7-10 seedlings per pot. These plants were inoculated with an aqueous spore suspension of Septoria tritici either prior to or after fungicide treatments. After inoculation the plants were kept in 100% relative humidity (one day in a dark dew chamber followed by two to three days in a lighted dew chamber at 20° C.) to permit spores to germinate and infect the leaf. The plants were then transferred to a greenhouse set at 20° C. for disease to develop. When disease symptoms were fully expressed on the 1st leaves of untreated plants, infection levels were assessed on a scale of 0 to 100 percent disease severity. Percent disease control was calculated using the ratio of disease severity on treated plants relative to untreated plants.

[3] = 24 h, 1 Day Protectant, read-out: PUCCRT 1DP disease control
[4] = 72 h, 3 Day Curative, read-out: PUCCRT 3DC disease control
[5] = 24 h, 1 Day Protectant, read-out: SEPTTR 1DP disease control
[6] = 72 h, 3 Day Curative, read-out: SEPTTR 3DC disease control

SMILES | pest or weed control at 100 ppm [1, 3] | pest or weed control at 100 ppm [1, 4] | pest or weed control at 100 ppm [2, 5] | pest or weed control at 100 ppm [2, 6]
C=C(C)CO[C@H]1[C@H](C)OC(=O)[C@@H](NC(=O)c2nccc(OC)c2O)CCC[C@@H]1OCC(=C)C [F14, 3-hydroxy-4-methoxy-N-((3S,7S,8S,9S)-9-methyl-7,8-bis((2-methylallyl)oxy)-2-oxooxonan-3-yl)pyridine-2-carboxamide] | 80 to 100% | 80 to 100% | < 0% | 80 to 100%
COc1ccnc(C(=O)N[C@H]2CCC[C@H](OCc3ccccc3)[C@@H](OCc3ccccc3)[C@H](C)OC2=O)c1O [F22] | 80 to 100% | 80 to 100% | 80 to 100% | 80 to 100%
COc1ccnc(C(=O)N[C@H]2CCC[C@H](OCc3ccccc3)[C@@H](Oc3ccccc3)[C@H](C)OC2=O)c1O [F23] | 80 to 100% | 80 to 100% | 80 to 100% | 80 to 100%
COc1ccnc(C(=O)N[C@H]2CCC[C@H](Oc3ccccc3)[C@@H](OCc3ccccc3)[C@H](C)OC2=O)c1O [F24] | 80 to 100% | 80 to 100% | 80 to 100% | 80 to 100%
COc1ccnc(C(=O)N[C@H]2CCC[C@H](OCC(C)C)[C@@H](Oc3ccccc3)[C@H](C)OC2=O)c1O [F25] | 80 to 100% | 80 to 100% | 80 to 100% | 80 to 100%
COc1ccnc(C(=O)N[C@H]2CCC[C@H](Oc3ccccc3)[C@@H](OCC(C)C)[C@H](C)OC2=O)c1O [F27] | 80 to 100% | 80 to 100% | 80 to 100% | 80 to 100%
COc1ccnc(C(=O)N[C@H]2CCC[C@H](Oc3ccccc3)[C@@H](OCc3ccccc3)[C@H](C)OC2=O)c1OCOC(C)=O [F32] | 80 to 100% | 80 to 100% | 80 to 100% | 80 to 100%
COc1ccnc(C(=O)N[C@H]2CCC[C@H](OCC(C)C)[C@@H](OC3CCCC3)[C@H](C)OC2=O)c1O [F33] | 80 to 100% | 80 to 100% | 0 to 80% | 80 to 100%
COc1ccnc(C(=O)N[C@H]2CCC[C@H](OCC(C)C)[C@@H](OCCCc3ccccc3)[C@H](C)OC2=O)c1O [F40] | 80 to 100% | 80 to 100% | 0 to 80% | 0 to 80%
COc1ccnc(C(=O)N[C@H]2CCC[C@H](OCC(C)C)[C@@H](OC(=O)C3CC3)[C@H](C)OC2=O)c1OC(C)=O [F42] | 80 to 100% | 80 to 100% | 80 to 100% | 80 to 100%
COc1ccnc(C(=O)N[C@H]2CCC[C@H](OCC(C)C)[C@@H](OCCCc3ccccc3)[C@H](C)OC2=O)c1OCOC(C)=O [F43] | 80 to 100% | 80 to 100% | 80 to 100% | 80 to 100%
COc1ccnc(C(=O)N[C@H]2CCC[C@H](Oc3ccc(F)cc3)[C@@H](Oc3ccc(F)cc3)[C@H](C)OC2=O)c1OCOC(C)=O [F48] | 80 to 100% | 80 to 100% | 80 to 100% | 80 to 100%
COc1ccnc(C(=O)N[C@H]2CCC[C@H](Oc3ccc(F)cc3)[C@@H](Oc3ccc(F)cc3)[C@H](C)OC2=O)c1OCOC(=O)C(C)C [F49] | 80 to 100% | 80 to 100% | 80 to 100% | 80 to 100%
COc1ccnc(C(=O)N[C@H]2CCC[C@H](OCC(C)C)[C@@H](OCCCC(F)(F)F)[C@H](C)OC2=O)c1OCOC(=O)C(C)C [F51] | 80 to 100% | 80 to 100% | 80 to 100% | 80 to 100%
COc1ccnc(C(=O)N[C@H]2CCC[C@H](OCC(C)C)[C@@H](OC(=O)C3CC3)[C@H](C)OC2=O)c1OCOC(=O)C(C)C [F52] | 80 to 100% | 80 to 100% | 80 to 100% | 80 to 100%
COc1ccnc(C(=O)N[C@H]2CCC[C@H](OCC(C)C)[C@@H](OC/C=C/C(F)(F)F)[C@H](C)OC2=O)c1O [F53] | 80 to 100% | 80 to 100% | 80 to 100% | 0 to 80%
COc1ccc(O[C@H]2CCC[C@H](NC(=O)c3nccc(OC)c3O)C(=O)O[C@@H](C)[C@@H]2Oc2ccc(F)cc2)cc1 [F54] | 80 to 100% | 80 to 100% | 80 to 100% | 0 to 80%
COc1ccnc(C(=O)N[C@H]2CCC[C@H](Oc3ccc(F)cc3)[C@@H](OCC(C)C)[C@H](C)OC2=O)c1O [F56] | 80 to 100% | 80 to 100% | 80 to 100% | 80 to 100%
COc1ccc(O[C@H]2[C@H](C)OC(=O)[C@@H](NC(=O)c3nccc(OC)c3O)CCC[C@@H]2OCC(C)C)cc1 [F57] | 80 to 100% | 80 to 100% | 80 to 100% | 80 to 100%
COc1ccnc(C(=O)N[C@H]2CCC[C@H](OCC(C)C)[C@@H](OC/C=C/C(F)(F)F)[C@H](C)OC2=O)c1OC(C)=O [F58] | 80 to 100% | 80 to 100% | 80 to 100% | 80 to 100%
COc1ccc(O[C@H]2CCC[C@H](NC(=O)c3nccc(OC)c3OCOC(C)=O)C(=O)O[C@@H](C)[C@@H]2Oc2ccc(F)cc2)cc1 [F60] | 80 to 100% | 80 to 100% | 80 to 100% | 80 to 100%
COc1ccnc(C(=O)N[C@H]2CCC[C@H](OCC(C)C)[C@@H](Oc3ccc(F)cc3)[C@H](C)OC2=O)c1OCOC(C)=O [F61] | 80 to 100% | 80 to 100% | 80 to 100% | 80 to 100%
COc1ccnc(C(=O)N[C@H]2CCC[C@H](OCC(C)C)[C@@H](Oc3ccc(F)cc3)[C@H](C)OC2=O)c1OCOC(=O)C(C)C [F62] | 80 to 100% | 80 to 100% | 80 to 100% | 80 to 100%
COc1ccc(O[C@H]2[C@H](C)OC(=O)[C@@H](NC(=O)c3nccc(OC)c3O)CCC[C@@H]2Oc2ccc(OC)cc2)cc1 [F64] | 0 to 80% | < 0% | 0 to 80% | 0 to 80%
COc1ccc(O[C@H]2CCC[C@H](NC(=O)c3nccc(OC)c3O)C(=O)O[C@@H](C)[C@@H]2OCC(C)C)cc1 [F65] | 80 to 100% | 80 to 100% | 80 to 100% | 0 to 80%
COc1ccc(O[C@H]2[C@H](C)OC(=O)[C@@H](NC(=O)c3nccc(OC)c3OCOC(C)=O)CCC[C@@H]2Oc2ccc(OC)cc2)cc1 [F66] | 80 to 100% | 80 to 100% | 80 to 100% | 0 to 80%
COc1ccc(O[C@H]2[C@H](C)OC(=O)[C@@H](NC(=O)c3nccc(OC)c3OCOC(=O)C(C)C)CCC[C@@H]2Oc2ccc(OC)cc2)cc1 [F67] | 80 to 100% | 80 to 100% | 80 to 100% | 0 to 80%
COc1ccc(O[C@H]2CCC[C@H](NC(=O)c3nccc(OC)c3OCOC(=O)C(C)C)C(=O)O[C@@H](C)[C@@H]2OCC(C)C)cc1 [F69] | 80 to 100% | 80 to 100% | 80 to 100% | 80 to 100%
CCCCCO[C@H]1[C@H](C)OC(=O)[C@@H](NC(=O)c2nccc(CC)c2O)CCC[C@@H]1OCC(C)C [F70] | 0 to 80% | 0 to 80% | 0 to 80% | 0 to 80%

Source: US9681664B2, “Macrocyclic picolinamides as fungicides” (Dow Agrosciences LLC, priority 2012, dated 2017)
